Experimental data reported in PubChem BioAssay AID206 (DTP/NCI, 2004).
Where “and” joins values, the source holds several entries; their conditions need not be identical. Identical values can stand only once. Results filed as inconclusive are left out. Starred links: 1 amine or outer side, 2 acyl side, 3 side chain; linkers in the order of their positions; H or OH if unused. Non-standard residues stand in square brackets, D forms with d. Residues, ends and D or L forms follow the SMILES beside them. *: point of attachment. X2 = CCC(=O)CC1CC(C)CC(C(=O)[*:2])N1[*:1]; X1 = CCCCCCCCC(C)C(=O)*; Aib = CC(C)(N)C(=O)O; X3 = CC(CN(C)CCO)N*

System: nude mice, HT29 intrarenal xenograft, tumor weight T/C
Assay: NCI In Vivo Anticancer Drug Screen. Data for tumor model HT29;CX-1 Human Adenocarcinoma (MER+) (intrarenal inoculation) in NU/NU Swiss (nude) mice
Details: endpoint: mean tumor weight change, higher = larger tumour
Outline: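 T/C = treated-group value ÷ vehicle-group value, using tumor size or survival.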

[1] = dose: 100.0 mg/kg/injection, schedule: Q01DX010 (sc), vehicle: saline with Tween-80
[2] = dose: 200.0 mg/kg/injection, schedule: Q01DX010 (sc), vehicle: saline with Tween-80
[3] = dose: 400.0 mg/kg/injection, schedule: Q01DX010 (sc), vehicle: saline with Tween-80
[4] = dose: 150.0 mg/kg/injection, schedule: Q04DX004 (sc), vehicle: saline with Tween-80
[5] = dose: 300.0 mg/kg/injection, schedule: Q04DX004 (sc), vehicle: saline with Tween-80
[6] = dose: 600.0 mg/kg/injection, schedule: Q04DX004 (sc), vehicle: saline with Tween-80

Compound: CC(Cc1ccc(O)c(O)c1)C(C)Cc1ccc(O)c(O)c1 (stereo not drawn)
- T/C (dose: 600.0 mg/kg/injection, schedule: Q04DX004 (sc), vehicle: saline + alcohol): 68 % of control
- T/C (dose: 900.0 mg/kg/injection, schedule: Q04DX004 (sc), vehicle: saline + alcohol): 102 % of control
- T/C (dose: 1800.0 mg/kg/injection, schedule: Q04DX004 (sc), vehicle: saline + alcohol): 97 % of control

Compound: O=C1NC(c2ccccc2)N=C2Oc3ccccc3C=C12 (stereo not drawn)
- T/C (dose: 50.0 mg/kg/injection, schedule: Q01DX010 (sc), vehicle: saline with Tween-80): 115 % of control
- T/C [1]: 155 % of control
- T/C [2]: 77 % of control
- T/C [3]: 54 % of control

Compound: CCO/C=C1\SC(=S)N(c2ccccc2C)C1=O
- T/C [1]: 80 % of control
- T/C [2]: 102 % of control
- T/C [3]: 177 % of control
- T/C (dose: 800.0 mg/kg/injection, schedule: Q01DX010 (sc), vehicle: saline with Tween-80): 107 % of control

Compound: CCCCCCCCC(C)C(=O)N1CCCC1C(=O)N1C(CC(=O)CC)CC(C)CC1C(=O)NC(C)C(=O)NC(C)(C)C(=O)NC(C)(C)C(=O)NC(C(=O)NC(C)C(=O)NC(C)(C)C(=O)NC(C)(C)C(=O)NC(C)CN(C)CCO)C(C)CC (stereo not drawn) (X1-P[X2]A[Aib][Aib]IA[Aib][Aib]-X3; configuration not given here)
- T/C (dose: 1.88 mg/kg/injection, schedule: Q04DX004 (sc), vehicle: Klucel (hydroxypropylcellulose) (HPC)): 94 % of control
- T/C (dose: 3.75 mg/kg/injection, schedule: Q04DX004 (sc), vehicle: Klucel (hydroxypropylcellulose) (HPC)): 59 % of control and 67 % of control

Compound: [Cl][Pt+2][Cl].[NH-]C1CCC1.[NH2-]
- T/C (dose: 6.25 mg/kg/injection, schedule: Q04DX004 (sc), vehicle: suspension in saline): 54 % of control
- T/C (dose: 12.5 mg/kg/injection, schedule: Q04DX004 (sc), vehicle: suspension in saline): 41 % of control
- T/C (dose: 25.0 mg/kg/injection, schedule: Q04DX004 (sc), vehicle: suspension in saline): 46 % of control

Compound: Cc1c(N)nc(C(CC(N)=O)NCC(N)C(N)=O)nc1C(=O)NC(C(=O)NC(C)C(O)CC(=O)NC(C(=O)NC(OC1OC(C)C(N)C(O)C1O)C(O)c1nc(-c2nc(C(=O)NCCCC(N)CC(=O)NCCCNCCCCN)cs2)cs1)C(C)O)C(OC1OC(CO)C(O)C(O)C1OC1OC(CO)C(O)C(OC(N)=O)C1O)c1cnc[nH]1 (stereo not drawn)
- T/C (dose: 8.0 mg/kg/injection, schedule: Q04DX004 (sc), vehicle: saline): 17 % of control
- T/C (dose: 16.0 mg/kg/injection, schedule: Q04DX004 (sc), vehicle: saline): 21 % of control

Compound: CCCCCCCCCCCCCCCCCC(=O)OCC(=O)OCC(=O)[C@]1(O)Cc2c(O)c3c(c(O)c2[C@@H](OC2CC(N)C(O)C(C)O2)C1)C(=O)c1c(OC)cccc1C3=O (stereo partly drawn)
- T/C (dose: 3.0 mg/kg/injection, schedule: Q01DX010 (sc), vehicle: water): 56 % of control
- T/C (dose: 6.0 mg/kg/injection, schedule: Q01DX010 (sc), vehicle: water): 47 % of control
- T/C (dose: 7.5 mg/kg/injection, schedule: Q04DX004 (sc), vehicle: water): 86 % of control
- T/C (dose: 12.0 mg/kg/injection, schedule: Q01DX010 (sc), vehicle: water): 59 % of control
- T/C (dose: 15.0 mg/kg/injection, schedule: Q04DX004 (sc), vehicle: water): 96 % of control
- T/C (dose: 30.0 mg/kg/injection, schedule: Q04DX004 (sc), vehicle: water): 38 % of control

Compound: C1CN2CCC1CC2
- T/C (dose: 9.38 mg/kg/injection, schedule: Q04DX004 (sc), vehicle: saline with Tween-80): 65 % of control
- T/C (dose: 18.75 mg/kg/injection, schedule: Q04DX004 (sc), vehicle: saline with Tween-80): 82 % of control

Compound: CCCCCn1c(C)cc(/C=C\c2ccc3cc(C)ccc3[n+]2C)c1C
- T/C (dose: 1.0 mg/kg/injection, schedule: Q01DX010 (sc), vehicle: Klucel (hydroxypropylcellulose) (HPC)): 89 % of control
- T/C (dose: 2.0 mg/kg/injection, schedule: Q01DX010 (sc), vehicle: Klucel (hydroxypropylcellulose) (HPC)): 182 % of control
- T/C (dose: 4.0 mg/kg/injection, schedule: Q01DX010 (sc), vehicle: Klucel (hydroxypropylcellulose) (HPC)): 89 % of control

Compound: CN(C)CCN1C(=O)c2cccc3cc([N+](=O)[O-])cc(c23)C1=O
- T/C (dose: 18.0 mg/kg/injection, schedule: Q04DX004 (sc), vehicle: saline with Tween-80): 95 % of control

Compound: Cn1c2nc(=O)n(-c3ccccc3)c(=O)c-2nc2c1CCCC2
- T/C [4]: 106 % of control
- T/C [5]: 32 % of control

Compound: CC[N](CC)[Ge]([CH2]C)[CH2]C.CC[N](CC)[Ge]([CH2]C)[CH2]C
- T/C (dose: 12.5 mg/kg/injection, schedule: Q01DX010 (sc), vehicle: suspension in saline): 226 % of control
- T/C (dose: 25.0 mg/kg/injection, schedule: Q01DX010 (sc), vehicle: suspension in saline): 158 % of control

Compound: COC(=O)C12OCC34C(CC5C(C)C6=CC(=O)OC6=CC5(C)C3C(O)C1O)OC(=O)C(OC(C)=O)C24 (stereo not drawn)
- T/C (dose: 1.25 mg/kg/injection, schedule: Q04DX004 (sc), vehicle: saline + alcohol): 115 % of control
- T/C (dose: 5.0 mg/kg/injection, schedule: Q04DX004 (sc), vehicle: saline + alcohol): 171 % of control
- T/C (dose: 10.0 mg/kg/injection, schedule: Q04DX004 (sc), vehicle: saline + alcohol): 165 % of control

Compound: COc1cc(OC)c(OC)cc1/C=C\c1ccnc2ccccc12
- T/C (dose: 225.0 mg/kg/injection, schedule: Q04DX004 (sc), vehicle: Klucel (hydroxypropylcellulose) (HPC)): 79 % of control
- T/C (dose: 450.0 mg/kg/injection, schedule: Q04DX004 (sc), vehicle: Klucel (hydroxypropylcellulose) (HPC)): 110 % of control
- T/C (dose: 900.0 mg/kg/injection, schedule: Q04DX004 (sc), vehicle: Klucel (hydroxypropylcellulose) (HPC)): 83 % of control
- T/C (dose: 1800.0 mg/kg/injection, schedule: Q04DX004 (sc), vehicle: Klucel (hydroxypropylcellulose) (HPC)): 67 % of control

Compound: O=Cc1ccc(O)c(O)c1
- T/C [5]: 86 % of control
- T/C [6]: 58 % of control
- T/C (dose: 1200.0 mg/kg/injection, schedule: Q04DX004 (sc), vehicle: saline with Tween-80): 100 % of control

Compound: O=S(=O)(N=N/C=C1\C=CC=CN1O)c1cccs1
- T/C [4]: 75 % of control

Compound: CN(Cc1cnc2nc(N)nc(N)c2n1)c1ccc(C(=O)N[C@@H](CCC(=O)O)C(=O)O)cc1
- T/C (dose: 0.5 mg/kg/injection, schedule: Q01DX010 (sc), vehicle: sodium bicarbonate): 116 % of control
- T/C (dose: 1.0 mg/kg/injection, schedule: Q01DX010 (sc), vehicle: sodium bicarbonate): 41 % of control

Compound: NNC(=S)N/N=C/c1ccccn1
- T/C (dose: 15.0 mg/kg/injection, schedule: Q04DX004 (sc), vehicle: saline with Tween-80): 100 % of control
- T/C (dose: 30.0 mg/kg/injection, schedule: Q04DX004 (sc), vehicle: saline with Tween-80): 76 % of control
- T/C (dose: 60.0 mg/kg/injection, schedule: Q04DX004 (sc), vehicle: saline with Tween-80): 86 % of control

Compound: Cc1cc2nc3[nH]c4ccccc4c3nc2cc1C
- T/C (dose: 100.0 mg/kg/injection, schedule: Q01DX010 (sc), vehicle: saline): 46 % of control
- T/C (dose: 200.0 mg/kg/injection, schedule: Q01DX010 (sc), vehicle: saline): 98 % of control
- T/C (dose: 400.0 mg/kg/injection, schedule: Q01DX010 (sc), vehicle: saline): 82 % of control
- T/C (dose: 800.0 mg/kg/injection, schedule: Q01DX010 (sc), vehicle: saline): 84 % of control

Compound: CC(=Nc1ccccc1)C1=C(O)C(Cc2ccccc2)NC1=O (stereo not drawn)
- T/C (dose: 75.0 mg/kg/injection, schedule: Q04DX004 (sc), vehicle: saline with Tween-80): 66 % of control
- T/C [4]: 105 % of control
- T/C [5]: 43 % of control
- T/C [6]: 80 % of control

Compound: CCCCC(=O)OCC(=O)[C@]1(O)Cc2c(O)c3c(c(O)c2[C@@H](OC2CC(NC(=O)C(F)(F)F)C(O)C(C)O2)C1)C(=O)c1c(OC)cccc1C3=O (stereo partly drawn)
- T/C (dose: 64.0 mg/kg/injection, schedule: Q01DX010 (sc), vehicle: distilled water + Tween-80): 61 % of control
- T/C (dose: 128.0 mg/kg/injection, schedule: Q01DX010 (sc), vehicle: distilled water + Tween-80): 83 % of control
- T/C (dose: 256.0 mg/kg/injection, schedule: Q01DX010 (sc), vehicle: distilled water + Tween-80): 46 % of control

Compound: C[n+]1cccc(NC(=O)c2ccc(NC(=O)C34CCC(C(=O)Nc5ccc(C(=O)Nc6ccc[n+](C)c6)cc5)(CC3)CC4)cc2)c1
- T/C (dose: 12.5 mg/kg/injection, schedule: Q04DX004 (sc), vehicle: saline with Tween-80): 118 % of control
- T/C (dose: 25.0 mg/kg/injection, schedule: Q04DX004 (sc), vehicle: saline with Tween-80): 47 % of control
- T/C (dose: 50.0 mg/kg/injection, schedule: Q04DX004 (sc), vehicle: saline with Tween-80): 7 % of control and 21 % of control

Compound: CC[C@@H](C)[C@@H]1NC(=O)C(NC(=O)C(CC(C)C)N(C)C(=O)C2CCCN2C(=O)C(C)O)C(C)OC(=O)C(Cc2ccc(OC)cc2)N(C)C(=O)C2CCCN2C(=O)C(CC(C)C)NC(=O)C(C)C(=O)C(C(C)C)OC(=O)C[C@H]1O (stereo partly drawn)
- T/C (dose: 225.0 micrograms/kg/injection, schedule: Q04DX004 (sc), vehicle: distilled water + alcohol): 105 % of control
- T/C (dose: 450.0 micrograms/kg/injection, schedule: Q04DX004 (sc), vehicle: distilled water + alcohol): 106 % of control
- T/C (dose: 900.0 micrograms/kg/injection, schedule: Q04DX004 (sc), vehicle: distilled water + alcohol): 78 % of control
- T/C (dose: 1800.0 micrograms/kg/injection, schedule: Q04DX004 (sc), vehicle: distilled water + alcohol): 29 % of control
